Experimental findings from publication PMC10789823, “Synthesis, structural characterizations, in vitro biological evaluation and computational investigations of pyrazole derivatives as potential antidiabetic and antioxidant agents” (Scientific Reports, 2024) are described below.

In assay [1] the target is α-amylase from Bacillus licheniformis (Bacillus licheniformis, UniProt P06278). The assay can be described thus: biochemical. To be noted: mean ± standard deviation (n = 3). As to the method: (§1) The α-glucosidase and α-amylase inhibitory activities of compounds Pyz-1 and Pyz-2 were determined using the method described in our previous works[48],[49].
(§2) All other reagents and standards were of analytical reagent grade.
The α-amylase assay was performed by reacting various concentrations of compounds with α-amylase and starch solution by following the DNSA method with minor modifications (Hashim et al., 2013). The evaluated samples were dissolved in tampon phosphate with various concentrations. The sample solution (10μL) was mixed with 240μL (sodium phosphate buffer 0.02M pH6.9) containing α-amylase (240U/mL), and incubated at 37°C for 20 min. After pre-incubation, 250 µL of 1% starch solution were added to each tube and incubated for 15 min. 1ml of dinitrosalicylic acid was added to stop the reaction, then incubate the solution in a water bath at 90°C for 10 min. The mixture was diluted with 1 mL deionized water and the absorbance (Abs) was measured at 540 nm.
The IC50 values were determined by the percentage of inhibitions at different concentrations.

The target of assay [2] is α-glucosidase from Saccharomyces cerevisiae (Saccharomyces cerevisiae, UniProt P53341). Put plainly: biochemical. As to the method:
as §1, §2
The α-glucosidase inhibitory activity was performed by using (ρ-nitrophenyl-α-D-glucopyranoside) as a substrate according to the method described by (Kee et al., 2013),with minor modifications. The α-glucosidase method is based on the inhibition of the enzyme. α-glucosidase, which hydrolyses (4-Nitrophenyl-α-d-glucopyranoside) to α-d-glucopyranose and P-nitrophenol of yellow color. The target compound was dissolved in DMSO and all the evaluated samples were dissolved in tampon phosphate at a series of concentrations. A mixture of 150 µl of the sample and 100 µl of PBS (pH = 6.7) containing the α- glucosidase enzyme solution (0.1U/ml) was incubated at 37 ° C for 10 min, after incubation, 200µl of pNPG (1 mM) was added to the mixture. The mixtures were incubated at 37 °C for 30 min. Then 1 ml Na2CO3 (0.1 M) was added to stop the reaction. The absorbance was measured at 405 nm. The results were expressed in percentage of inhibition according to the following formula: […]
The same reaction mixture without α-glucosidase was used as negative control.

Assay [3] is described as follows: DPPH radical scavenging activity assay. The note with it: called SC50; mean ± standard deviation (n = 3). As to the method: (§3) The antioxidant activities of the title compound were determined in vitro by DPPH, ABTS, FRAP and hydrogen peroxide activity (H2O2) methods according to the procedures described in our previous works.
The DPPH radical activity assay was performed following (Huang et al., 2011) with minor modification. The method using the stable free radical 2,2-diphenyl-1-picrylhydrazyl (DPPH) is based upon the reduction of DPPH free radical. Different concentrations of the prepared compounds (500, 250, 125, 62.5, 31.25 µM) were tested. The DPPH solution was prepared by dissolving 3,9mg of DPPH in 50 mL of the methanol. Then, 50µL of each concentration was added to 1,2ml of methanol and 250µL of the prepared DPPH solution […]. The reaction mixture incubated in the dark for 30 min. The control was prepared by adding 1,25 mL of methanol to 250 µL of DPPH. Ascorbic acid was used as the standard. The absorbances of solutions were spectrophotometrically examined at 517 nm. The radical activity is expressed as inhibition ratio of initial concentration of DPPH radical and is calculated according to the formula: […]
Where AbsDPPH is the absorbance of DPPH radical and Abssample is the absorbance in the presence of sample.

Assay [4] in a line: Hydrogen peroxide activity (H2O2). The note with it: mean ± standard deviation (n = 3). As to the method:
as §3
The hydrogen-donating activity, measured utilizing hydrogen peroxide radicals as the hydrogen acceptor was performed as previously described by (Muruhan et al., 2013) with minor modifications. Briefly a solution of hydrogen peroxide (40 mM) was prepared in phosphate buffer (pH 7.4). Different concentrations of the prepared compounds (62.5, 31.25, 15.62, 7.81 and 3.9 μM) were added to a hydrogen peroxide solution (0.6 mL, 40 mM). The absorbance of hydrogen peroxide at 230 nm was determined after 10 min against a blank solution containing phosphate buffer without hydrogen peroxide (or ascorbic acid as the control). The hydrogen peroxide percentage activity was then calculated using the following equation: […]

A short description of another assay: ABTS assay. The note with it: for IC50: called SC50, mean ± standard deviation (n = 3). As to the method: as §3
The ABTS assay was performed as previously described by (Tuberoso et al., 2013). ABTS+ radical was generated by oxidation of ABTS with potassium persulfate. The blue-green ABTS was produced through the reaction between 2 mM ABTS and 70 mM potassium persulfate in water. The mixture was left to stand in the dark for 12–16 h before use. The ABTS+ solution as diluted with methanol to an absorbance of 0.700 ± 0.005 at 734 nm. Then 2 mL of diluted ABTS solution were mixed with 100 μL of samples and absorbance was measured after 1 min incubation at room temperature. A standard curve was obtained by using Ascorbic acid as standard solution.

For another assay, the target named is xanthine oxidase (Homo sapiens, UniProt P47989). The assay can be described thus: Xanthine oxidase inhibition assay (XO). It counts as biochemical. The note with it: mean ± standard deviation (n = 3). As to the method: The xanthine oxidase inhibitory activity of Pyz-1 and Pyz-2 was performed following the method described by Kostić et al.[50], with minor modifications. The samples were prepared at series of concentrations. 1.95 ml of 5 mM phosphate buffer pH 7.5 and 50 µl of enzyme solution was added to the mixtures. After pre-incubation at 25 °C for 15 min. 1 ml of substrate was added.

A short description of assay [5]: Ferric reducing power assay (FRAP). The note with it: mean ± standard deviation (n = 3). As to the method: as §3
The ferric ion (Fe^3+) reducing power assay was performed as previously described by (Amarowicz et al., 2004) with minor modifications. Briefly, 1 mL of the samples were mixed with 2.5 mL of 0.2 M sodium phosphate buffer (pH 6.6) and 2.5 mL of 1% potassium ferricyanide. The mixtures were incubated in a […] water bath at 50 °C for 20 min. Then, 2.5 mL of 10% trichloroacetic acid was added and centrifuged at 3000 rpm for 10 min. Finally, 2.5 mL of the supernatant were mixed with 2.5 mL distilled water and 0.5 mL FeCl3 solution (0.1%, w/v). The absorbance was measured at 700 nm and the results were expressed as IC50.

Where [6] appears, read: mean ± standard deviation (n = 3), read-out: IC50 α-Glucosidase.

The IC50 is the point on the concentration scale where inhibition reaches its midpoint.

Values joined by “and” are separate entries in the source; they are usually repeats but may differ in a detail not shown here. Identical values can stand only once. Like-named read-outs stand apart in the source and are kept apart here.

Sequence of α-glucosidase from Saccharomyces cerevisiae (P53341 whole entry): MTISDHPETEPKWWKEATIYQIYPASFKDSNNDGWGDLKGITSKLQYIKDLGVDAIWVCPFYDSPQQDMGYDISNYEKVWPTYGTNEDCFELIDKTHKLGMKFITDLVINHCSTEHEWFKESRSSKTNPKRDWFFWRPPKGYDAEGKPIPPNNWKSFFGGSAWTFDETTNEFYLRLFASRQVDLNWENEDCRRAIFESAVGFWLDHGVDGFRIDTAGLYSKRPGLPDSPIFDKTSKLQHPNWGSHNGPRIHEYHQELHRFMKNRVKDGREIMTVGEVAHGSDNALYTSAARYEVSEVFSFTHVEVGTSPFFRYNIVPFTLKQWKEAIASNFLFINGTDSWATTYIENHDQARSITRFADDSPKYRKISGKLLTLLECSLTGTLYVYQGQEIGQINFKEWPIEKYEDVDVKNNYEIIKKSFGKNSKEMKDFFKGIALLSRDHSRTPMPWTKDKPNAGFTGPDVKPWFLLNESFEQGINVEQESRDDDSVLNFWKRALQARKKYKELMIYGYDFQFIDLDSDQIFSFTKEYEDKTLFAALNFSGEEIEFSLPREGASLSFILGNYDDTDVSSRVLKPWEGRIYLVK
Sequence of α-amylase from Bacillus licheniformis (P06278 30-512): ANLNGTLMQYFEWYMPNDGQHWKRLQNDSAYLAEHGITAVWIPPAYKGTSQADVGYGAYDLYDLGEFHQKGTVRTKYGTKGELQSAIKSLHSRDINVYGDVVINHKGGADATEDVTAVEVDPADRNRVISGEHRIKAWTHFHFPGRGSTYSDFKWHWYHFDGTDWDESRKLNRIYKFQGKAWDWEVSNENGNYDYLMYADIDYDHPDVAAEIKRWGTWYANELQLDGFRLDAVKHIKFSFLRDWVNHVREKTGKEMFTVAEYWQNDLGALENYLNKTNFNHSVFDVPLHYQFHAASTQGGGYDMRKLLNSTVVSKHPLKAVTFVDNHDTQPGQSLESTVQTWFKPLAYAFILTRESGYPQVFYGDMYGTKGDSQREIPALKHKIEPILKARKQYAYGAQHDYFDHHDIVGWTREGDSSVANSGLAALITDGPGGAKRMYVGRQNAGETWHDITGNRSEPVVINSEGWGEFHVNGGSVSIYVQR
Sequence of xanthine oxidase (P47989 whole entry, species assumed): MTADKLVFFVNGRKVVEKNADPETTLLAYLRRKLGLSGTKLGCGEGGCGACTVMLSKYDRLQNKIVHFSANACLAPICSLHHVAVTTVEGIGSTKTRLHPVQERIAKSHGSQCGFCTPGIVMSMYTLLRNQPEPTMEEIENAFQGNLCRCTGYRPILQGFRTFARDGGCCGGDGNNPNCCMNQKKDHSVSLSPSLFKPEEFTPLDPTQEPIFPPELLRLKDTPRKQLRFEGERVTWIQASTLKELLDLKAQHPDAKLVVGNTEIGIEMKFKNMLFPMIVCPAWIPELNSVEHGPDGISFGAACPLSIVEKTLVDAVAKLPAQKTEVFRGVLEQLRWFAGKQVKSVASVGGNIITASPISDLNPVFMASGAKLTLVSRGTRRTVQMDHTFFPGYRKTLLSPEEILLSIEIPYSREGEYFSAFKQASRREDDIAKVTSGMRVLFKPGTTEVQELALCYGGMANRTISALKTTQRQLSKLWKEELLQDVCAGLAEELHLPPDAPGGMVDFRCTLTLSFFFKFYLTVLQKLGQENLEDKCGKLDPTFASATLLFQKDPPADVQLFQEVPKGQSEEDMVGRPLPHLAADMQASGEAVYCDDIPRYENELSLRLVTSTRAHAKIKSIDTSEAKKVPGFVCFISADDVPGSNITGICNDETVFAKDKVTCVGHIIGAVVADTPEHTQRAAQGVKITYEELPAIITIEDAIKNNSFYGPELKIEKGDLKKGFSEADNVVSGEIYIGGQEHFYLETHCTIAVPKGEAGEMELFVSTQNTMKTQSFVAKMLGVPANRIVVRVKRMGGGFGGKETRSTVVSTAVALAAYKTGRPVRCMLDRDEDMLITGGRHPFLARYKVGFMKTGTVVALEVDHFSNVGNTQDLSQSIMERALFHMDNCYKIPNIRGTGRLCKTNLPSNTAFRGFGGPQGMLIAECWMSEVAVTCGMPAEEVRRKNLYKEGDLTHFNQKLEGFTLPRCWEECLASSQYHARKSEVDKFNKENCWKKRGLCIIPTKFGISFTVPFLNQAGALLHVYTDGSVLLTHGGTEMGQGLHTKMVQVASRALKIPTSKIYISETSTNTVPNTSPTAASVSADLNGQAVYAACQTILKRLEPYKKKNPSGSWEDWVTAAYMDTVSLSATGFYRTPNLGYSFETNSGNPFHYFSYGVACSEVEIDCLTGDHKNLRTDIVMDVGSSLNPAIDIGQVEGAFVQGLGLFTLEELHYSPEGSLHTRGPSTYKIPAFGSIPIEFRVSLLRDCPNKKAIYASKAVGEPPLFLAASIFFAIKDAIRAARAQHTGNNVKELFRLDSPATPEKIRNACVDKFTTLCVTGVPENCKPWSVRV

Regarding `Cc1cc(C(=O)NN)[nH]n1` [Compound 1, 5-methyl-1H-pyrazole-3-carbohydrazide], the IC50 in assay [1] was over 500 µM; in assay [2] (setting [6]), 279 ± 4.03 µM.

`Cc1cc(-c2nnc(S)n2N)n[nH]1` [Pyz-2, 4-amino-5-(5-methyl-1H-pyrazol-3-yl)-4H-1,2,4-triazole-3-thiol]: the concentration for half-maximal inhibition (IC50) in assay [3] is 139 ± 1.45 µM; in assay [4], 24.8 ± 1.23 µM; in assay [1] it was 119 µM and 120 µM; in “ABTS assay”, 20.5 ± 0.87 µM; in assay [2] (setting [6]), 95.85 ± 0.92 µM; against xanthine oxidase, 10.8 ± 0.54 µM. In addition, inhibition in assay [5] was half-maximal at 62.62 ± 0.49 µM (IC50). Moreover, the “ABTS scavenging activity relative to Pyz-1” value in the assay “ABTS assay” (ratio of SC50 values, versus Pyz-1) is recorded as 3.88 fold.

In the case of `Cc1cc(C(=O)NNC(=O)Nc2ccccc2)n[nH]1` [Pyz-1, 2-(5-methyl-1H-pyrazole-3-carbonyl)-N-phenylhydrazine-1-carboxamide], the IC50 was 238.5 ± 1.12 µM in assay [3]; 31.5 ± 0.92 µM in assay [4]; 120 µM and 119 µM in assay [1]; 79.77 ± 0.45 µM in “ABTS assay”; 75.62 ± 0.56 µM in assay [2]; 24.3 ± 0.78 µM at xanthine oxidase. In assay [5], this compound registered an IC50 of 100.2 ± 0.79 µM.

Take `O=C1O[C@H]([C@@H](O)CO)C(O)=C1O` [Ascorbic acid, reference compound]: the IC50 in assay [3] was 78.11 ± 0.68 µM; in assay [4] it was 7.45 ± 1.11 µM; in “ABTS assay” it was 22.5 ± 0.59 µM; in assay [5] it was 88.12 ± 0.23 µM.
